Test results from ChEMBL document CHEMBL1156324, “Purine derivatives as potent gamma-secretase modulators” (Bioorg Med Chem Lett, 2010).

Legend:
[1] = Activity at gamma-secretase expressed in human SH-SY5Y cells assessed as inhibition of amyloid beta 42 production by HTRF immunoassay; assay type: cell-based
[2] = Activity at gamma-secretase expressed in human SH-SY5Y cells assessed as inhibition of amyloid beta 40 production by HTRF immunoassay; assay type: cell-based
Gamma-secretase = test: Inhibition of gamma-secretase-mediated Notch deltaE cleavage in human HeLa cells by luciferase assay; assay type: cell-based
[3] = target: Gamma-secretase (Homo sapiens) (UniProt Q96BI3+Q9NZ42+Q8WW43+P49768+Q92542+P49810); test: Selectivity ratio, IC50 for human gamma-secretase-mediated Notch deltaE cleavage to IC50 for gamma-secretase-mediated amyloid beta 42 production; assay type: protein-complex assay
Mus musculus = test: Inhibition of Abeta42 production in APP-YAC transgenic mouse brain at 100 mg/kg, po after 6 hrs; assay type: functional; conditions: read-out: INH
[4] = Drug level in APP-YAC transgenic mouse brain at 100 mg/kg, po after 6 hrs; assay type: ADME, organism-based; design: dose 100 mg/kg, route oral; conditions: read-out: Drug uptake
[5] = Drug level in APP-YAC transgenic mouse plasma at 100 mg/kg, po after 6 hrs; assay type: ADME, organism-based; design: dose 100 mg/kg, route oral; conditions: read-out: Drug uptake

Row | IC50 [1] | IC50 [2] | IC50 (Gamma-secretase) | Ratio IC50 [3] | concentration at 6 h [4] | concentration at 6 h [5] | SMILES | inhibition in vivo at 100 mg/kg (Mus musculus)
1 | 910 nM | 8000 nM |  |  |  |  | Cc1ccc(C(C)(C)C)cc1Nc1nc(N2CCN(CC3CCOCC3)CC2)nc2ncn(C)c12 | 
2 | 21 nM | 350 nM | > 50000 nM | > 2400 | 7.8 µM | 23 µM | COc1ccc(N2CCN(c3nc(Nc4cc(C(C)(C)C)ccc4C)c4c(ncn4C)n3)CC2(C)C)cc1 | 73%
3 | 50 nM | 1000 nM | > 50000 nM | > 1000 |  |  | COc1ccc(N2CCN(c3nc(Nc4cc(C(C)(C)C)ccc4C)c4c(n3)nc(C(F)(F)F)n4C)CC2(C)C)cc1 | 
4 | 39 nM | 730 nM | > 50000 nM | > 1300 |  |  | COc1ccc(N2CCN(c3nc(Nc4cc(C(C)(C)C)ccc4C)c4c(ncn4C)n3)CC2)cc1 | 
5 | 12 nM | 130 nM | 9100 nM | 760 |  |  | Cc1ccc(C(C)(C)C)cc1Nc1nc(N2CCN(Cc3ccncc3)CC2)nc2ncn(C)c12 | 
6 | 55 nM | 420 nM |  |  |  |  | COc1ccc(N2CCN(c3nc(Nc4cc(C(C)(C)C)ccc4C)c4c(ncn4CC(F)(F)F)n3)CC2(C)C)cc1 | 
7 | 500 nM | 1100 nM |  |  |  |  | COc1ccc(NCCNc2nc(Nc3cc(C(C)(C)C)ccc3C)c3c(ncn3C)n2)cc1 | 
8 | 210 nM | 3100 nM |  |  |  |  | COc1ccc(N2CCN(c3nc(Nc4cc(C(C)(C)C)ccc4C)c4cccnc4n3)CC2(C)C)cc1 | 
9 | 130 nM | 2600 nM |  |  |  |  | COc1ccc(N2CCN(c3nc(Nc4cc(C(C)(C)C)ccc4C)c4ncn(C)c4n3)CC2(C)C)cc1 | 
10 | 870 nM | 4700 nM |  |  |  |  | COCCCCN1CCN(c2nc(Nc3cc(C(C)(C)C)ccc3C)c3c(ncn3C)n2)CC1 | 
11 | 22 nM | 160 nM | 9200 nM | 420 |  |  | COc1ccc(N2CCN(c3nc(Nc4cc(C(C)(C)C)ccc4C)c4c(n3)nc(C)n4C)CC2(C)C)cc1 | 
12 | 68 nM | 1000 nM |  |  |  |  | COc1ccc(N2CCN(c3nc(Nc4cc(C(C)(C)C)ccc4C)c4[nH]cnc4n3)CC2(C)C)cc1 | 
13 | 750 nM | 3000 nM |  |  |  |  | COc1ccc(N2CCN(c3nc(Nc4cc(C(C)(C)C)ccc4C)c4[nH]ccc4n3)CC2(C)C)cc1 | 
14 | 30 nM | 310 nM |  |  |  |  | Cc1ccc(C(C)(C)C)cc1Nc1nc(N2CCC(Cc3ccncc3)CC2)nc2ncn(C)c12 | 
15 | 800 nM | 1100 nM |  |  |  |  | Cc1ccc(C(C)(C)C)cc1Nc1nc(-c2ccc(Cc3ccncc3)cc2)nc2ncn(C)c12 | 
16 | 9.4 nM | 57 nM |  |  |  |  | Cc1ccc(C(C)(C)C)cc1Nc1nc(N2CCC(Oc3ccncc3)CC2)nc2ncn(C)c12 | 
17 | 810 nM | 3900 nM |  |  |  |  | CCc1ccc(N2CCN(c3nc(Nc4cc(C(C)(C)C)ccc4C)c4c(ncn4C)n3)CC2)cc1 | 
18 | 340 nM | 1600 nM |  |  |  |  | Cc1ccc(C(C)(C)C)cc1Nc1nc(N2CCC(n3ccnc3)CC2)nc2ncn(C)c12 | 
19 | 21 nM | 270 nM |  |  |  |  | COc1ccc(N2CCN(c3nc(Nc4cc(C(C)(C)C)ccc4C)c4c(ncn4C)n3)CC2(C)C)cc1F | 
20 | 67 nM | 400 nM | 22000 nM | 330 |  |  | Cc1ccc(C(C)(C)C)cc1Nc1nc(NCCc2cnn(C)c2)nc2ncn(C)c12 | 
21 | 380 nM | 4100 nM |  |  |  |  | COc1ccc(N2CCCN(c3nc(Nc4cc(C(C)(C)C)ccc4C)c4c(ncn4C)n3)CC2)cc1 | 
22 | 36 nM | 250 nM |  |  |  |  | Cc1ccc(C(C)(C)C)cc1Nc1nc(NCCc2ccncc2)nc2ncn(C)c12 | 
23 | 350 nM | 1800 nM |  |  |  |  | Cc1ccc(C(C)(C)C)cc1Nc1nc(N2CCC(c3ccncc3)CC2)nc2ncn(C)c12 | 
24 | 16 nM | 120 nM | 13000 nM | 810 | 7.8 µM | 27 µM | Cc1cc(OC2CCN(c3nc(Nc4cc(C(C)(C)C)ccc4C)c4c(ncn4C)n3)CC2)ncn1 | 69%
25 | 54 nM | 630 nM |  |  |  |  | Cc1ccc(C(C)(C)C)cc1Nc1nc(N2CCC(c3ccccc3)C2)nc2ncn(C)c12 (centres undefined) | 
26 | 260 nM | 5700 nM |  |  |  |  | COc1ccc(N2CCN(c3nc(Nc4cc(C(C)(C)C)ccc4C)cc(OC)n3)CC2(C)C)cc1 | 
27 | 50 nM | 350 nM |  |  |  |  | COc1ccc(N2CCN(c3nc(Nc4cc(C(C)(C)C)ccc4C)c4c(ncn4C(C)C)n3)CC2(C)C)cc1 | 
